Experimental findings from patent US6677309B1, “Anti-cancer drug aldehyde conjugate drugs with enhanced cytotoxicity compounds, compositions and methods” (University Technology Corporation, priority 1997, dated 2004) are described below.

The term half-life denotes the time needed for the level to fall by half in the phase considered.

Molecules are shown by their SMILES. Where two headings read alike, the source gives them in different places. A value given as a limit tells only on which side of the number the result lay.

For one data set, the system named is LNCaP. In words: Prostate cancer cell cytotoxicity, crystal violet assay, LNCaP. The conditions noted are these: 3 h drug, 4 days growth. In kind it is cell-based, human. As to the method: (§1) Toxicity to the three prostate cancer cell lines, LNCaP, DU-145, and PC-3 were measured in two different media, RPMI-1640 and DMEM (Dulbecco's Modified Eagle Medium), both supplemented with 10% fetal bovine serum.
(§2) Cell lines were maintained in vitro in RPMI 1640 media or DMEM, each supplemented with 10% fetal bovine serum, 2 mM L-glutamine, 10 mM HEPES buffer, penicillin (100 units/mL) and streptomycin (100 μg/mL).
(§3) Cells were dissociated with trypsin/EDTA, counted, and suspended in growth media (RPMI or DMEM) to a concentration of 5.6×10^3 cells/mL. Cell suspensions were dispensed in 180 μL aliquots into 96-well tissue culture plates. […] Each 100× solution was diluted 10× in growth media (RPMI or DMEM), and a 20 μL aliquot of the resulting 10× solution was immediately (<10s) added to-the appropriate lane. Additionally, one lane was treated with 20 μL of 10% DMSO in growth media (no drug) and one lane was treated with 200 μL of 1.5 M Tris buffer (no cells). The cells were incubated with the drugs for 3 h at 37° C. The drug solutions were then removed and replaced with 200 μL of fresh media. The cells were incubated for 4 days (7 days for PC-3 cells in DMEM) at 37° C. in a humidified atmosphere of 5% CO2 and 95% air. Cell survival was determined using a crystal violet assay as described earlier (Fenick, D. J. et al (1997) J. Med. Chem. 40: 2452-2461).

The next data set deals with DU-145. In words: Prostate cancer cell cytotoxicity, crystal violet assay, DU-145. In kind it is cell-based, human. The conditions noted are these: 3 h drug, 4 days growth. How it is done: as §1, §2, §3
Another data set has as its system PC-3. In words: Prostate cancer cell cytotoxicity, crystal violet assay, PC-3. In kind it is cell-based, human. The conditions noted are these: 3 h drug. How it is done: as §1, §2, §3
The conditions of data set [1]: amorphous material.
The nature of data set [2]: Hydrolysis in aqueous phosphate buffer, HPLC. In kind it is physicochemical. As to the method: See Example 16. […] The DMSO was present to increase solubility.
Second, the kinetics of hydrolysis were measured in pH 6.0 phosphate buffer.
A 960 μL solution of pH 7.3 phosphate buffer was heated to 37° C. […] No change in the chromatography was observed if pH, 7.3 phosphate buffer was used as the eluent in place of pH 7.4 TEAA buffer.

For the compound `COc1cccc2c1C(=O)c1c(O)c3c(c(O)c1C2=O)C[C@@](O)(C(C)=O)C[C@@H]3O[C@H]1C[C@H]2[C@H](OCN2CN2CO[C@@H]3[C@H](C)O[C@@H](O[C@H]4C[C@](O)(C(C)=O)Cc5c(O)c6c(c(O)c54)C(=O)c4c(OC)cccc4C6=O)C[C@@H]32)[C@H](C)O1` [DAUNF, bis(3′-N-(3′-N,4′-O-methylenedaunorubicinyl))methane], the IC50 in the data set on LNCaP (DMEM with 10% fetal bovine serum, read-out: IC50 Values, LNCaP/DMEM (converted)) was 1.5 nM; in the data set on LNCaP (RPMI-1640 with 10% fetal bovine serum, read-out: IC50 Values, LNCaP/RPMI-1640 (converted)), 3 nM; in the data set on DU-145 (DMEM with 10% fetal bovine serum, read-out: IC50 Values, DU-145/DMEM (converted)), 4 nM; in the data set with DU-145 (RPMI-1640 with 10% fetal bovine serum, read-out: IC50 Values, DU-145/RPMI-1640 (converted)) it was 5 nM; in the data set on PC-3 (DMEM with 10% fetal bovine serum, 7 days growth, read-out: IC50 Values, PC-3/DMEM (converted)), 0.5 nM; in the data set on PC-3 (RPMI-1640 with 10% fetal bovine serum, 4 days growth, read-out: IC50 Values, PC-3/RPMI-1640 (converted)), 2.5 nM. For the same compound, the “concentration to which the material dissolved instantly in dimethylsulfoxide” value in data set [1] was no less than 20000 µg/mL.
`COc1cccc2c1C(=O)c1c(O)c3c(c(O)c1C2=O)CC(O)(C(=O)CO)CC3OC1CC2C(OCN3CN2COC2C(C)OC(OC4C[C@](O)(C(=O)CO)Cc5c(O)c6c(c(O)c54)C(=O)c4c(OC)cccc4C6=O)CC23)C(C)O1` (stereo partly shown) [EPIF]: in data set [2] (pH 6.0 phosphate buffer, 37° C.), the half-life at 25 µM came out at 0.25 h. Moreover, the “time the equilibrium mixture is stable” value in data set [2] (pH 7.3, at equilibrium) is reported as “at least 2 days”. The half-life in data set [2] (pH 7.3 phosphate buffer, 37° C., read-out: half-life of hydrolysis, forward reaction (A⇄B) to C+D (converted)) is roughly 2 h.
